Earlier results in PMC7587962, “Evaluation of Cytotoxicity and α-Glucosidase Inhibitory Activity of Amide and Polyamino-Derivatives of Lupane Triterpenoids” (Molecules, 2020).

Key:
Set-up in all cases: method as in PMID 25405285
Settings in all cases: standard drugs used by NCI as control; cited from earlier work
[1] = tested on: SF-539
[2] = tested on: NCI-H522
[3] = tested on: SK-MEL-2

Structure (SMILES): COc1cccc2c1C(=O)c1c(O)c3c(c(O)c1C2=O)C[C@@](O)(C(=O)CO)C[C@@H]3O[C@H]1C[C@H](N)[C@H](O)[C@H](C)O1 [DRB, doxorubicin]
- GI50 [1]: 120 nM
- GI50 [2]: 30 nM
- GI50 [3]: 170 nM
